Test results reported in PubChem BioAssay (NCI).
Values joined by “and” are separate entries in the source; they are usually repeats but may differ in a detail not shown here. Equal entries are not always repeated.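 Growth conditions: 96-well plates. Treatment: test compound, 48 hours, 5 concentrations. Analysis: linear interpolation between bracketing concentrations; unreached endpoints set to highest concentration. Abbreviation: GI50, concentration required for 50% inhibition of growth. Definition used: TGI = concentration required for complete inhibition of growth.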

Legend:
Test in all cases: NCI tumour cell line growth inhibition, 48 h
KM20L2 colon = system: KM20L2 colon
DMS 273 small cell lung = system: DMS 273 small cell lung
SNB-78 CNS = system: SNB-78 CNS
DMS 114 small cell lung = system: DMS 114 small cell lung
RXF-631 renal = system: RXF-631 renal
HOP-18 NSCLC = system: HOP-18 NSCLC
DLD-1 colon = system: DLD-1 colon
XF 498 CNS = system: XF 498 CNS
MDA-N = system: MDA-N

Row | SMILES | TGI (KM20L2 colon) [µM] | TGI (DMS 273 small cell lung) [µM] | TGI (SNB-78 CNS) [µM] | TGI (DMS 114 small cell lung) [µM] | TGI (HOP-18 NSCLC) [µM] | TGI (DLD-1 colon) [µM] | TGI (XF 498 CNS) [µM] | TGI (MDA-N) [µM] | other results
1 | c1ccc2c(c1)[nH]c1c2ncc2[nH]c3ccccc3c21 | 12.5 | 9.39 | 27.2 | 6.69 | 14.9 | 19.7 | 3.3 | – | TGI (RXF-631 renal): 5.05 µM
2 | CCCCCCCCCCCCCCCCCC[N+](C)(C)Cc1ccc(C[N+](C)(C)CCCCCCCCCCCCCCCCCC)cc1 | 92.7 | 45.9 | 47.1 | 34.1 | 34.8 | 57.3 | – | – | TGI (RXF-631 renal): 57.1 µM
3 | CC[CH2][Sn]([CH2]CC)([O]C(=O)Cc1ccc(F)cc1)[O][Sn]([CH2]CC)([CH2]CC)[O]C(=O)Cc1ccc(F)cc1 | 1.98 | 1.13 | – | 0.119 | 0.828 | 0.432 | 0.302 | 1.43 | GI50 (KM20L2 colon): 0.662 µM; GI50 (DMS 273 small cell lung): 0.205 µM; GI50 (DMS 114 small cell lung): 0.029 µM; GI50 (MDA-N): 0.317 µM; GI50 (HOP-18 NSCLC): 0.25 µM; GI50 (DLD-1 colon): 0.122 µM; GI50 (XF 498 CNS): 0.161 µM
4 | Cn1c(=N)n[n+]([O-])c2ccccc21 | – | – | – | – | – | – | – | 3.66 | –
5 | FC(F)(F)c1nc(-c2ccccc2)oc1Sc1oc(-c2ccccc2)nc1C(F)(F)F | > 100 | > 100 | > 100 | > 100 | > 100 | > 100 | > 100 | – | –
6 | Cc1c(CC/C(=N\Nc2ccc([N+](=O)[O-])cc2[N+](=O)[O-])c2ccccc2)c2ccccc2n1C | > 100 | > 100 | > 100 | > 100 | – | > 100 | > 100 | – | TGI (RXF-631 renal): > 100 µM
7 | Cc1ccccc1NC(=O)c1ccc([N+](=O)[O-])cc1 | > 100 | > 100 | > 100 | > 100 | > 100 | > 100 | > 100 | – | –
8 | COc1ccc(C2c3c(-c4ccccc4)nn(-c4ccccc4)c3Oc3ncn4nc(CC#N)nc4c32)cc1OC (stereo not drawn) | – | – | – | – | – | – | – | > 100 | GI50 (MDA-N): > 100 µM and 16.2 µM
9 | CCCN1C(=O)CNC(=O)c2[nH]cnc21 | > 100 | – | > 100 | > 100 | > 100 | > 100 | > 100 | – | –
10 | Cn1c(=O)c2[nH]c(CCCCc3nc4c([nH]3)c(=O)n(C)c(=S)n4C)nc2n(C)c1=S | – | – | – | – | – | – | – | > 100 | –
11 | COC(=O)C1=C(C)N(NC(N)=O)C(C)(O)C12CCOC2=O (stereo not drawn) | > 100 | > 100 | > 100 | > 100 | > 100 | > 100 | > 100 | – | –
12 | COC1CC(OC)C(O)C(CO)O1 (stereo not drawn) | > 100 | – | > 100 | – | > 100 | > 100 | > 100 | – | –
13 | O=C(C=Nc1ccccc1C(=O)[O-])c1cccs1.O=C(C=Nc1ccccc1C(=O)[O-])c1cccs1.[Zn+2] | > 100 | > 100 | – | – | > 100 | > 100 | – | – | –
14 | Cc1ccc2c(c1)C=CC(C#N)N2C(=O)Oc1ccccc1 (stereo not drawn) | – | – | – | – | – | – | – | > 100 | –
15 | COc1ccc(C2C3=C(COC3=O)Oc3cc4c(cc32)OCO4)cc1 (stereo not drawn) | 38.9 | > 100 | > 100 | 38.2 | 89.5 | > 100 | > 100 | – | –
16 | Cc1ccc(NC(=O)CC2C(=O)Nc3ccccc3S2=O)c(C)c1 (stereo not drawn) | > 49.1 | > 54.1 | 47.6 | 34.4 | 67.4 | > 76.5 | 28.7 | – | TGI (RXF-631 renal): > 71.3 µM
17 | COC1=C(OC)[C@]2(OC)c3c(O)c(OC)c4c(c3O[C@@]23O[C@@H](c2ccccc2)CC=C3C1=O)[C@@H](O)C[C@H](c1ccccc1)O4 | – | – | – | – | – | – | – | 0.424 | GI50 (MDA-N): 0.196 µM
18 | O=S(=O)(CCCCl)SCCCCl | – | – | – | – | – | – | – | > 76.2 | –
19 | O=C(O)[C@@H](NS(=O)(=O)c1ccc([N+](=O)[O-])cc1)c1ccccc1 | > 100 | > 100 | – | – | > 100 | > 100 | > 100 | – | TGI (RXF-631 renal): > 100 µM
20 | c1ccc2c(CNCCCCCCCCCCCCNCc3cccc4ccccc34)cccc2c1 | 3.37 | > 100 | 3.41 | – | 9.56 | 3.31 | 3.11 | – | –
21 | O=c1ccnc(SCc2ccc(Cl)cc2)[nH]1 | – | – | – | – | – | – | – | > 100 | –
